From ChEMBL document CHEMBL2034905, “Synthesis of benzimidazolyl-1,3,4-oxadiazol-2ylthio-N-phenyl (benzothiazolyl) acetamides as antibacterial, antifungal and antituberculosis agents” (Eur J Med Chem, 2012)
In brackets after ≈: the same amount, converted by molar mass.

Key:
[1] = test system: Mycobacterium tuberculosis; assay: Antituberculosis activity against Mycobacterium tuberculosis H37Rv by BACTEC MGIT method; format: functional
Aspergillus niger [2] = assay: Antifungal activity against Aspergillus niger MTCC 282 at 100 ug/disc by paper disc diffusion technique; format: functional; conditions: read-out: IZ
Aspergillus fumigatus [3] = assay: Antifungal activity against Aspergillus fumigatus MTCC 343 at 100 ug/disc by paper disc diffusion technique; format: functional; conditions: read-out: IZ
Aspergillus clavatus [4] = assay: Antifungal activity against Aspergillus clavatus MTCC 1323 at 100 ug/disc by paper disc diffusion technique; format: functional; conditions: read-out: IZ
Candida albicans [5] = assay: Antifungal activity against Candida albicans MTCC 183 at 100 ug/disc by paper disc diffusion technique; format: functional; conditions: read-out: IZ
Aspergillus niger [6] = assay: Antifungal activity against Aspergillus niger MTCC 282 by agar streak dilution method; format: functional
Aspergillus fumigatus [7] = assay: Antifungal activity against Aspergillus fumigatus MTCC 343 by agar streak dilution method; format: functional
Aspergillus clavatus [8] = assay: Antifungal activity against Aspergillus clavatus MTCC 1323 by agar streak dilution method; format: functional
Candida albicans [9] = assay: Antifungal activity against Candida albicans MTCC 183 by agar streak dilution method; format: functional
[10] = test system: Mycobacterium tuberculosis; assay: Antituberculosis activity against Mycobacterium tuberculosis H37Rv by Lowenstein-Jensen method; format: functional
[11] = test system: Mycobacterium tuberculosis; assay: Antituberculosis activity against Mycobacterium tuberculosis H37Rv at 6.25 ug/ml by Lowenstein-Jensen method; format: functional
Staphylococcus aureus [12] = assay: Antibacterial activity against Staphylococcus aureus MTCC 96 at 100 ug/disc by paper disc diffusion technique; format: functional; conditions: read-out: IZ
Bacillus cereus [13] = assay: Antibacterial activity against Bacillus cereus MTCC 430 at 100 ug/disc by paper disc diffusion technique; format: functional; conditions: read-out: IZ
Escherichia coli [14] = assay: Antibacterial activity against Escherichia coli MTCC 739 at 100 ug/disc by paper disc diffusion technique; format: functional; conditions: read-out: IZ
Pseudomonas aeruginosa [15] = assay: Antibacterial activity against Pseudomonas aeruginosa MTCC 741 at 100 ug/disc by paper disc diffusion technique; format: functional; conditions: read-out: IZ
Klebsiella pneumoniae [16] = assay: Antibacterial activity against Klebsiella pneumoniae MTCC 109 at 100 ug/disc by paper disc diffusion technique; format: functional; conditions: read-out: IZ
Salmonella typhi [17] = assay: Antibacterial activity against Salmonella typhi MTCC 733 at 100 ug/disc by paper disc diffusion technique; format: functional, Salmonella enterica subsp. enterica serovar Typhi; conditions: Salmonella enterica, read-out: IZ
Proteus vulgaris [18] = assay: Antibacterial activity against Proteus vulgaris MTCC 1771 at 100 ug/disc by paper disc diffusion technique; format: functional; conditions: read-out: IZ
Shigella flexneri [19] = assay: Antibacterial activity against Shigella flexneri MTCC 1457 at 100 ug/disc by paper disc diffusion technique; format: functional; conditions: read-out: IZ
Staphylococcus aureus [20] = assay: Antibacterial activity against Staphylococcus aureus MTCC 96 by agar streak dilution method; format: functional
Bacillus cereus [21] = assay: Antibacterial activity against Bacillus cereus MTCC 430 by agar streak dilution method; format: functional
Escherichia coli [22] = assay: Antibacterial activity against Escherichia coli MTCC 739 by agar streak dilution method; format: functional
Pseudomonas aeruginosa [23] = assay: Antibacterial activity against Pseudomonas aeruginosa MTCC 741 by agar streak dilution method; format: functional
Klebsiella pneumoniae [24] = assay: Antibacterial activity against Klebsiella pneumoniae MTCC 109 by agar streak dilution method; format: functional
Salmonella typhi [25] = assay: Antibacterial activity against Salmonella typhi MTCC 733 by agar streak dilution method; format: functional, Salmonella enterica subsp. enterica serovar Typhi; conditions: Salmonella enterica
Proteus vulgaris [26] = assay: Antibacterial activity against Proteus vulgaris MTCC 1771 by agar streak dilution method; format: functional
Shigella flexneri [27] = assay: Antibacterial activity against Shigella flexneri MTCC 1457 by agar streak dilution method; format: functional

Row | Compound | MIC [1] [µg/mL] | zone of inhibition at 100 µg/disc (Aspergillus niger [2]) [mm] | zone of inhibition at 100 µg/disc (Aspergillus fumigatus [3]) [mm] | zone of inhibition at 100 µg/disc (Aspergillus clavatus [4]) [mm] | zone of inhibition at 100 µg/disc (Candida albicans [5]) [mm] | MIC (Aspergillus niger [6]) [µg/mL] | MIC (Aspergillus fumigatus [7]) [µg/mL] | MIC (Aspergillus clavatus [8]) [µg/mL] | MIC (Candida albicans [9]) [µg/mL] | MIC [10] [µg/mL] | inhibition at 6.25 µg/mL [11] [%] | zone of inhibition at 100 µg/disc (Staphylococcus aureus [12]) [mm] | zone of inhibition at 100 µg/disc (Bacillus cereus [13]) [mm] | zone of inhibition at 100 µg/disc (Escherichia coli [14]) [mm] | zone of inhibition at 100 µg/disc (Pseudomonas aeruginosa [15]) [mm] | zone of inhibition at 100 µg/disc (Klebsiella pneumoniae [16]) [mm] | zone of inhibition at 100 µg/disc (Salmonella typhi [17]) [mm] | zone of inhibition at 100 µg/disc (Proteus vulgaris [18]) [mm] | zone of inhibition at 100 µg/disc (Shigella flexneri [19]) [mm] | MIC (Staphylococcus aureus [20]) [µg/mL] | also measured
1 | NNC(=O)c1ccncc1 [ISONIAZID] | 0.2 (≈ 1.46 µM) |  |  |  |  |  |  |  |  |  |  |  |  |  |  |  |  |  |  |  | 
2 | CC(=O)N1CCN(c2ccc(OCC3COC(Cn4ccnc4)(c4ccc(Cl)cc4Cl)O3)cc2)CC1 (configuration not stated) [KETOCONAZOLE] |  | 30 | 29 | 31 | 33 | 1.56 (≈ 2.94 µM) | 0.78 (≈ 1.47 µM) | 0.78 (≈ 1.47 µM) | 1.56 (≈ 2.94 µM) |  |  |  |  |  |  |  |  |  |  |  | 
3 | CC(=O)Nc1ccc(NC(=O)CSc2nnc(Cn3cnc4ccccc43)o2)cc1 | > 6.25 | 22 | 15 | 18 | 18 | 25 (≈ 59.2 µM) | 100 (≈ 237 µM) | 100 (≈ 237 µM) | 100 (≈ 237 µM) | 100 (≈ 237 µM) | 95 | < 10 | 11 | 20 | 19 | 13 | < 10 | 20 | 16 | 100 (≈ 237 µM) | MIC (Bacillus cereus [21]): 100 µg/mL (≈ 237 µM); MIC (Escherichia coli [22]): 50 µg/mL (≈ 118 µM); MIC (Pseudomonas aeruginosa [23]): 100 µg/mL (≈ 237 µM); MIC (Klebsiella pneumoniae [24]): 100 µg/mL (≈ 237 µM); MIC (Salmonella typhi [25]): 100 µg/mL (≈ 237 µM); MIC (Proteus vulgaris [26]): 25 µg/mL (≈ 59.2 µM); MIC (Shigella flexneri [27]): 100 µg/mL (≈ 237 µM)
4 | O=C(CSc1nnc(Cn2cnc3ccccc32)o1)Nc1ccccc1 | > 6.25 | < 10 | 13 | < 10 | < 10 | 100 (≈ 274 µM) | 100 (≈ 274 µM) | 100 (≈ 274 µM) | 100 (≈ 274 µM) | 500 (≈ 1370 µM) | 95 | 12 | < 10 | 13 | 21 | 13 | < 10 | 13 | 13 | 100 (≈ 274 µM) | MIC (Bacillus cereus [21]): 100 µg/mL (≈ 274 µM); MIC (Escherichia coli [22]): 100 µg/mL (≈ 274 µM); MIC (Pseudomonas aeruginosa [23]): 50 µg/mL (≈ 137 µM); MIC (Klebsiella pneumoniae [24]): 100 µg/mL (≈ 274 µM); MIC (Salmonella typhi [25]): 100 µg/mL (≈ 274 µM); MIC (Proteus vulgaris [26]): 100 µg/mL (≈ 274 µM); MIC (Shigella flexneri [27]): 100 µg/mL (≈ 274 µM)
5 | O=C(CSc1nnc(Cn2cnc3ccccc32)o1)Nc1ccc(I)cc1 | > 6.25 | < 10 | 17 | 13 | 12 | 100 (≈ 204 µM) | 100 (≈ 204 µM) | 100 (≈ 204 µM) | 100 (≈ 204 µM) | 250 (≈ 509 µM) | 95 | 17 | 15 | 12 | 22 | 23 | 16 | 22 | 20 | 50 (≈ 102 µM) | MIC (Bacillus cereus [21]): 100 µg/mL (≈ 204 µM); MIC (Escherichia coli [22]): 100 µg/mL (≈ 204 µM); MIC (Pseudomonas aeruginosa [23]): 25 µg/mL (≈ 50.9 µM); MIC (Klebsiella pneumoniae [24]): 50 µg/mL (≈ 102 µM); MIC (Salmonella typhi [25]): 100 µg/mL (≈ 204 µM); MIC (Proteus vulgaris [26]): 25 µg/mL (≈ 50.9 µM); MIC (Shigella flexneri [27]): 50 µg/mL (≈ 102 µM)
6 | O=C(CSc1nnc(Cn2cnc3ccccc32)o1)Nc1ccc(F)cc1 | > 6.25 | 19 | 23 | 17 | 16 | 50 (≈ 130 µM) | 50 (≈ 130 µM) | 100 (≈ 261 µM) | 100 (≈ 261 µM) | 50 (≈ 130 µM) | 97 | 18 | 16 | 18 | 24 | 22 | 21 | 14 | 23 | 25 (≈ 65.2 µM) | MIC (Bacillus cereus [21]): 50 µg/mL (≈ 130 µM); MIC (Escherichia coli [22]): 50 µg/mL (≈ 130 µM); MIC (Pseudomonas aeruginosa [23]): 12.5 µg/mL (≈ 32.6 µM); MIC (Klebsiella pneumoniae [24]): 50 µg/mL (≈ 130 µM); MIC (Salmonella typhi [25]): 50 µg/mL (≈ 130 µM); MIC (Proteus vulgaris [26]): 50 µg/mL (≈ 130 µM); MIC (Shigella flexneri [27]): 12.5 µg/mL (≈ 32.6 µM)
